From ChEMBL document CHEMBL4118122, “Identification and biological evaluation of thiazole-based inverse agonists of RORγt” (Bioorg Med Chem Lett, 2018)
Converted amounts (≈) assume the structure as drawn.

Columns and labels:
[1] = target: T1, Nuclear receptor ROR-beta (Homo sapiens, UniProt Q92753); experiment: Binding affinity to recombinant human RORbeta LBD (201 to 452 residues) expressed in Escherichia coli BL21 (DE3) GOLD by 1,8-ANS dye-based thermofluor assay
T1 sequence (Q92753 whole entry): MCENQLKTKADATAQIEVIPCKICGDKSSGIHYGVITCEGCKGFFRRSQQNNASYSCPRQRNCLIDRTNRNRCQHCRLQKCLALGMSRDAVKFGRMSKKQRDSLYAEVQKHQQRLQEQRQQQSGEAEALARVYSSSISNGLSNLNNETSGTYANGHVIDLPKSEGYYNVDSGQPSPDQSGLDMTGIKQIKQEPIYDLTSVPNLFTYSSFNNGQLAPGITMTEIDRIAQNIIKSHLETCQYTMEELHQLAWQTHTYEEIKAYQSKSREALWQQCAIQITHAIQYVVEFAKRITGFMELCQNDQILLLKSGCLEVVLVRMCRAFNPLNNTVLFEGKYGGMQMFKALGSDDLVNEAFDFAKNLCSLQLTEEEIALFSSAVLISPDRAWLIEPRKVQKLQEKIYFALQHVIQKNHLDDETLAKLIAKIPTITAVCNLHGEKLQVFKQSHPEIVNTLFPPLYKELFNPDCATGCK

Cytochrome P450 1A2 = target: T2, Cytochrome P450 1A2 (Homo sapiens, UniProt P05177); experiment: Inhibition of CYP1A2 (unknown origin); assay type: ADME
T2 sequence (P05177 whole entry): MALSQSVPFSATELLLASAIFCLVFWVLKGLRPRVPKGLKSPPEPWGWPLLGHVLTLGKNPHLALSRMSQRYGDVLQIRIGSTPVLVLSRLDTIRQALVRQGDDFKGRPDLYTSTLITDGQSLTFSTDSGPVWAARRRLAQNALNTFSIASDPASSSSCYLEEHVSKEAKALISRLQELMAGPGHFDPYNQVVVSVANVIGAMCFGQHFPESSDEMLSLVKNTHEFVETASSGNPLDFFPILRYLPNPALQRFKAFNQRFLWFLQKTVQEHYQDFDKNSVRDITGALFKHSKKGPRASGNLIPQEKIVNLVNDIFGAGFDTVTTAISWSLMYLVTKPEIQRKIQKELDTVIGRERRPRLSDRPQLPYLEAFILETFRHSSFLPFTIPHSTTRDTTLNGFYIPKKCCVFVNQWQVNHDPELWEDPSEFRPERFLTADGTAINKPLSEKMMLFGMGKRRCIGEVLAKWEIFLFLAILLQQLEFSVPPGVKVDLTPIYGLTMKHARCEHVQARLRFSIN

[2] = Thermodynamic solubility of the compound in 30 mM phosphate buffer at 10 mM at pH 7 after 2 to 5 days by UV-HPLC analysis; assay type: physicochemical; conditions: read-out: Therm_solubility
Cytochrome P450 2C19 = Cytochrome P450 2C19 (Homo sapiens, UniProt P33261); experiment: Inhibition of CYP2C19 (unknown origin); assay type: ADME
Chain of Cytochrome P450 2C19 (P33261 whole entry): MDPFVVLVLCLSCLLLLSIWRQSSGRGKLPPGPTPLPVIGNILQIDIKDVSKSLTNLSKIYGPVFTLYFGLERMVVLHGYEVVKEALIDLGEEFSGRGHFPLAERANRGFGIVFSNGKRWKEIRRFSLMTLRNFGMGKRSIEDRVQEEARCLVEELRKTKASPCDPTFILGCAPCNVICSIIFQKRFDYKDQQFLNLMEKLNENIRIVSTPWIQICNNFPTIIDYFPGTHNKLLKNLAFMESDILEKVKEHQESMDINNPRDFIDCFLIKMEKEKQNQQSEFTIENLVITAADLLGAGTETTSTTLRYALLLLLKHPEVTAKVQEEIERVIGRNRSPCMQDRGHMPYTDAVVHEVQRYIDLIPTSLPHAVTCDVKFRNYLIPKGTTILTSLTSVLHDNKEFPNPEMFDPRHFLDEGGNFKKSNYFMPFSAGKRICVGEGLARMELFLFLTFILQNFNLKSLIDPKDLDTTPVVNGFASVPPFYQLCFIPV

Cytochrome P450 2C9 = Cytochrome P450 2C9 (Homo sapiens, UniProt P11712); experiment: Inhibition of CYP2C9 (unknown origin); assay type: ADME
Chain of Cytochrome P450 2C9 (P11712 whole entry): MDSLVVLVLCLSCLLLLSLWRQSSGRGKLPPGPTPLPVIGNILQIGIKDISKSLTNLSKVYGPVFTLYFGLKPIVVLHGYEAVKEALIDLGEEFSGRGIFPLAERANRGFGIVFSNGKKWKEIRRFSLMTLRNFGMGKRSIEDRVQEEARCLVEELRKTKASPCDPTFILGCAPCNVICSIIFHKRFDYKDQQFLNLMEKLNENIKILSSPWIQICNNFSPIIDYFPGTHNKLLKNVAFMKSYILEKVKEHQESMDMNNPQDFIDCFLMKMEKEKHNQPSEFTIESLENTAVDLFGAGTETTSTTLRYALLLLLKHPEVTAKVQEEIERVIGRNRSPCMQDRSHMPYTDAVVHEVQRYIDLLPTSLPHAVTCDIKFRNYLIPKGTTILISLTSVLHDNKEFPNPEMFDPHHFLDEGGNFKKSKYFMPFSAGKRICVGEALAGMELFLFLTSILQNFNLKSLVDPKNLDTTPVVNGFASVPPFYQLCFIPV

[3] = Half life in rat microsomes; assay type: ADME, Microsome
Cytochrome P450 2D6 = Cytochrome P450 2D6 (Homo sapiens, UniProt P10635); experiment: Inhibition of CYP2D6 (unknown origin); assay type: ADME
Chain of Cytochrome P450 2D6 (P10635 whole entry): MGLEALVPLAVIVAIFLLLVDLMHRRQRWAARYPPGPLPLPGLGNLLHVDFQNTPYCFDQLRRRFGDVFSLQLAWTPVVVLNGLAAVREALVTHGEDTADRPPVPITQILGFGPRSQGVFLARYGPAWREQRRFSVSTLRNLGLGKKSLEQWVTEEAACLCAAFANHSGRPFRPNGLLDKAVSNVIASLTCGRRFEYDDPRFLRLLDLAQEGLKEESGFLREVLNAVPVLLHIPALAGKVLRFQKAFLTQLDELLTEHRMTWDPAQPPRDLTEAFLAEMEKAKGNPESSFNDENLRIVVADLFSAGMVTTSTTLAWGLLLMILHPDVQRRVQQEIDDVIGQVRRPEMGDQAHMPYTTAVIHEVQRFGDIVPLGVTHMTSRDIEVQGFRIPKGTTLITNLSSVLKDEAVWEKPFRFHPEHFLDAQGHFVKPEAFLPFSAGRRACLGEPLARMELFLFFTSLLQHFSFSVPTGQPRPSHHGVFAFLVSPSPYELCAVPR

Cytochrome P450 2C8 = target: T3, Cytochrome P450 2C8 (Homo sapiens, UniProt P10632); experiment: Inhibition of CYP2C8 (unknown origin); assay type: ADME
T3 sequence (P10632 whole entry): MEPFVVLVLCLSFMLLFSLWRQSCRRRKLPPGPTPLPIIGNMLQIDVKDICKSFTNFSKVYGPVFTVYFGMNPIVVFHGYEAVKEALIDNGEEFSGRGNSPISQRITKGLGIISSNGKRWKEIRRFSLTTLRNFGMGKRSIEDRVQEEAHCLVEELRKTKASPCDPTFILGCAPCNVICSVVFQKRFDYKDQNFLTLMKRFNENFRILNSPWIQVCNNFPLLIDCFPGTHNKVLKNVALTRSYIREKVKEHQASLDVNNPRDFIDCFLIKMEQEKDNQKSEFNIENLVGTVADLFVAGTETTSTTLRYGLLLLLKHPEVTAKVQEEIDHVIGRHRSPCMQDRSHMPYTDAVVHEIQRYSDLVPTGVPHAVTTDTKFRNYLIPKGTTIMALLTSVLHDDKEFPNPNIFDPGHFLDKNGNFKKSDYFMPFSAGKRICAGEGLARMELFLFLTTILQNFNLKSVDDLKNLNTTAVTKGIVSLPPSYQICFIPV

[4] = Half life in human microsomes; assay type: ADME, Microsome
PXR (NR1I2) [5] = target: T4, PXR (NR1I2) (Homo sapiens, UniProt O75469); experiment: […] at PXR LBD (unknown origin) expressed in HEK293 cells […] at 1 uM after 16 hrs by luciferase reporter gene assay relative to rifampicin; assay type: ADME, cell-based; conditions: HEK293 cells expressing PXR LBD, read-out: Efficacy
T4 sequence (O75469 whole entry): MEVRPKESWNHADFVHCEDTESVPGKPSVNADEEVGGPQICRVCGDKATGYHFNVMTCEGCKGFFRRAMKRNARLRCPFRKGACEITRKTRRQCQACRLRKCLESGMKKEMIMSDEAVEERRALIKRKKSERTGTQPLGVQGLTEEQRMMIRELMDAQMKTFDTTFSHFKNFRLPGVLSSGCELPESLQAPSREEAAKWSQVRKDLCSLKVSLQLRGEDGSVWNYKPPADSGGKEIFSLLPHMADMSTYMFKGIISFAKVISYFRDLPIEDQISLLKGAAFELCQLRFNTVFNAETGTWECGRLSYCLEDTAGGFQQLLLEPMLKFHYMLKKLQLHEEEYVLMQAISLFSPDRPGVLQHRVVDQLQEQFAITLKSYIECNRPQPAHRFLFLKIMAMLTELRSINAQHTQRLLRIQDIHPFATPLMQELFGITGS

PXR (NR1I2) [6] = target: T4, PXR (NR1I2); experiment: […] at PXR LBD (unknown origin) expressed in HEK293 cells […] at 10 uM after 16 hrs by luciferase reporter gene assay relative to rifampicin; assay type: ADME, cell-based; conditions: HEK293 cells expressing PXR LBD, read-out: Efficacy
Cytochrome P450 3A4 = Cytochrome P450 3A4 (Homo sapiens, UniProt P08684); experiment: Inhibition of CYP3A4 (unknown origin); assay type: ADME
Chain of Cytochrome P450 3A4 (P08684 whole entry): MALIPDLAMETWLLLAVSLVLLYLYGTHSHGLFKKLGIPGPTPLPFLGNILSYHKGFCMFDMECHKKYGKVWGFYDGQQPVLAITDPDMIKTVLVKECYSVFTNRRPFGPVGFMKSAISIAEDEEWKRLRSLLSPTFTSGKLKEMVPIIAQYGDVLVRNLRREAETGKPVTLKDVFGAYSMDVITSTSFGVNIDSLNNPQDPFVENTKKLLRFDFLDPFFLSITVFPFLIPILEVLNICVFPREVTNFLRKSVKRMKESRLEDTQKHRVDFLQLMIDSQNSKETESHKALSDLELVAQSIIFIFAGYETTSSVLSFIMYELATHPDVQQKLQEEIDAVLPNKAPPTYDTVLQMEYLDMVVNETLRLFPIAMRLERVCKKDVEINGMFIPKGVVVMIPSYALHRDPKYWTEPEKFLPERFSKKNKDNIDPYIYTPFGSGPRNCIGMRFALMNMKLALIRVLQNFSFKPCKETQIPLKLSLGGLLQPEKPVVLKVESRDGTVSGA

[7] = Cmax in Sprague-Dawley rat at 5 mg/kg, po; assay type: ADME, organism-based; design: dose 5 mg/kg, route oral; conditions: in vivo
[8] = Clearance in Sprague-Dawley rat at 1 mg/kg, iv; assay type: ADME, organism-based; conditions: in vivo
[9] = Half life in Sprague-Dawley rat at 1 mg/kg, iv; assay type: ADME, organism-based; conditions: in vivo
PXR (NR1I2) [10] = target: T4, PXR (NR1I2); experiment: […] at PXR LBD (unknown origin) expressed in HEK293 cells […] at 5 uM after 16 hrs by luciferase reporter gene assay relative to rifampicin; assay type: ADME, cell-based; conditions: HEK293 cells expressing PXR LBD, read-out: Efficacy
[11] = Tmax in Sprague-Dawley rat at 5 mg/kg, po; assay type: ADME, organism-based; conditions: in vivo
[12] = Oral bioavailability in Sprague-Dawley rat at 5 mg/kg; assay type: ADME, organism-based; conditions: in vivo
[13] = AUC (0 to infinity) in Sprague-Dawley rat at 5 mg/kg, po; assay type: ADME, organism-based; design: dose 5 mg/kg, route oral, time infinity; conditions: in vivo
[14] = Volume of distribution at steady state in Sprague-Dawley rat at 1 mg/kg, iv; assay type: ADME, organism-based; conditions: in vivo, read-out: Vdss
[15] = Terminal half life in Sprague-Dawley rat at 5 mg/kg, po; assay type: ADME, organism-based; conditions: in vivo, read-out: beta t1/2 (converted)
[16] = Initial plasma concentration in Sprague-Dawley rat at 1 mg/kg, iv; assay type: ADME, organism-based
[17] = AUC (0 to infinity) in Sprague-Dawley rat at 1 mg/kg, iv; assay type: ADME, organism-based; design: dose 1 mg/kg, time infinity, route intravenous; conditions: in vivo
[18] = Thermodynamic solubility of the compound in fasted state simulated intestinal […] after 2 to 5 days by UV-HPLC analysis; assay type: physicochemical; conditions: read-out: Therm_solubility

| Compound | Kd [1] [µM] | INH (Cytochrome P450 1A2) [µM] | solubility thermodynamic at 10000 µM [2] [µM] | INH (Cytochrome P450 2C19) [µM] | INH (Cytochrome P450 2C9) [µM] | half-life [3] [min] | INH (Cytochrome P450 2D6) [µM] | INH (Cytochrome P450 2C8) [µM] | half-life [4] [min] | Emax at 16 h, 1 µM (PXR (NR1I2) [5]) [%] | Emax at 16 h, 10 µM (PXR (NR1I2) [6]) [%] | INH (Cytochrome P450 3A4) [µM] | Emax at 16 h, 5 µM (PXR (NR1I2) [10]) [%] | solubility thermodynamic [18] [µM] | also measured |
| --- | --- | --- | --- | --- | --- | --- | --- | --- | --- | --- | --- | --- | --- | --- | --- |
| CC(C)(C)NS(=O)(=O)c1ccc(-c2sc(C(=O)N3CC4(C3)CS(=O)(=O)C4)nc2CC2CCCCC2)c2ccccc12 | > 85 | – | – | – | – | – | – | – | – | – | – | – | – | – | – |
| CC(C)(C)NS(=O)(=O)c1ccc(-c2sc(C(=O)N[C@H]3C[C@H](C(=O)O)C3)nc2CC2CCCCC2)c2c1CCCC2 | – | > 10 | < 1 | > 10 | > 10 | 22 | > 10 | 4.2 | 16 | 10 | 20 | > 10 | – | – | – |
| CC(C)(O)CNC(=O)c1nc(CC2CCCCC2)c(-c2ccc(S(=O)(=O)NC3(C#N)CC3)c3ccccc23)s1 | – | > 10 | 10 (≈ 5.67 µg/mL) | 6.3 | 0.7 | 15 | > 10 | 7.3 | 27 | 155 | 167 | 0.9 | – | – | – |
| C[C@H](NS(=O)(=O)c1ccc(-c2sc(C(=O)NCC(C)(C)O)nc2CC2CC2)c2ccccc12)C(F)(F)F | – | > 10 | < 4 | 2 | 0.4 | 54 | > 10 | 3.3 | > 180 | 122 | – | > 10 | 188 | – | Cmax [7]: 55 ng/mL; clearance [8]: 40.7 mL/min/kg; half-life [9]: 612 min; Tmax [11]: 48 min; bioavailability [12]: 14.8%; AUC(0-inf) [13]: 314 ng·h/mL; Vd [14]: 29.5 L/kg; half-life [15]: 414 min; C0 [16]: 119 ng/mL; AUC(0-inf) [17]: 415 ng·h/mL |
| C[C@H](NS(=O)(=O)c1ccc(-c2sc(C(=O)NCC(C)(C)O)nc2-c2cccc(F)c2)c(Cl)c1Cl)C(F)(F)F | > 78 | – | – | – | – | – | – | – | – | 69 | – | – | 122 | – | – |
| Cc1c(S(=O)(=O)NC(C)(C)C)ccc(-c2sc(C(=O)N[C@H]3C[C@H](C(=O)O)C3)nc2CC2CCCCC2)c1OC(F)F | – | > 10 | < 1 | > 10 | 8.7 | 26 | > 10 | 4 | 37 | 86 | 173 | > 10 | – | 50 (≈ 30.7 µg/mL) | – |
| C[C@H](NS(=O)(=O)c1ccc(-c2sc(C(=O)NCC(C)(C)O)nc2C2CCCCC2)c(Cl)c1Cl)C(F)(F)F | > 76 | – | – | – | – | – | – | – | – | 60 | – | – | 68 | – | – |
| CC(C)(C)NS(=O)(=O)c1ccc(-c2sc(C(=O)N[C@H]3C[C@H](C(=O)O)C3)nc2CC2CCCCC2)c(C(F)(F)F)c1 | – | > 10 | < 4 | > 10 | > 10 | 140 | > 10 | 3.4 | > 180 | – | – | > 10 | – | > 400 | – |
| CC(C)NS(=O)(=O)c1ccc(-c2sc(C(=O)N[C@H]3C[C@H](C(=O)O)C3)nc2CC2CCCCC2)c(C(F)F)c1Cl | – | > 10 | 11 (≈ 6.65 µg/mL) | > 10 | 7.6 | 85 | > 10 | 6.2 | 113 | 66 | – | > 10 | 113 | > 400 | – |
